Assay results taken from patent publication US5712397A, “Amino acid derivatives, processes for preparing them and pharmaceutical compositions containing these compounds” (Boehringer Ingelheim GmbH, priority 1994, dated 1998).

Target: T1, NK1-receptor (substance P-receptor) (Homo sapiens, UniProt P25103)
T1 construct: expressed in transfected cells; host or cells: IM-9 human lymphoblastoma cells
Assay: NK1-receptor affinity: displacement of 125I-labelled substance P on human lymphoblastoma cells (IM-9) with cloned NK1-receptors
Format: binding
Protocol: The receptor affinity for the NK1 -receptor (substance P-receptor) was determined on human lymphoblastoma cells (IM-9) with cloned NK1 -receptors, by measuring the displacement of ^125 I-labelled substance p.

T1 sequence (P25103 whole entry): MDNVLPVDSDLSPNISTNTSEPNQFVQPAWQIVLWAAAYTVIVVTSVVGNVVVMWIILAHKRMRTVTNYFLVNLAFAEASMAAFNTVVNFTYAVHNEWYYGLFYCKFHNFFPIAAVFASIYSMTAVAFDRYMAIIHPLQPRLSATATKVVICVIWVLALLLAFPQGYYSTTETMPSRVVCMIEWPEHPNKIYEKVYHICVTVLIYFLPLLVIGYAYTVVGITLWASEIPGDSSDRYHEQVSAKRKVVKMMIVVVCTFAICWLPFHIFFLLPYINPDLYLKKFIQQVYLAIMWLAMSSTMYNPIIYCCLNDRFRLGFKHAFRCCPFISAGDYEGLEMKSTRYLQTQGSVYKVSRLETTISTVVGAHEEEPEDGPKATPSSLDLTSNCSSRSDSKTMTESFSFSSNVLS

Compound	IC50 [nM]
COc1cc2c(cc1OC)N(Cc1ccccc1Cl)C(=O)C(NC(=O)[C@@H]1C[C@@H](O)CN1C(=O)c1cn(C)c3ccccc13)C2 (single isomer, unassigned) [Example 1]	0.4
CCc1ccccc1CN1C(=O)C(NC(=O)[C@@H]2C[C@@H](O)CN2C(=O)c2cn(C)c3ccccc23)Cc2cc(OC)c(OC)cc21 (single isomer, unassigned) [Example 6]	0.75
